Results published in PMC4585798 (Scientific Reports, 2015).
Positions of bridges follow the written chain, without caps; N, C: chain ends. Residues, ends and D or L forms follow the SMILES beside them.

Experiments:
Assay in all cases: cell-based
hα9α10 nAChR = hα9α10 nAChR (Homo sapiens, UniProt Q9GZZ6+Q9UGM1)
rα9α10 nAChR = rα9α10 nAChR (Rattus norvegicus, UniProt P43144+Q9JLB5)
hα9rα10 nAChR = hα9rα10 nAChR (UniProt Q9JLB5+Q9UGM1); design: species or system human α9 and rat α10
hα9α10[L7H] nAChR = hα9α10[L7H] nAChR (Homo sapiens, UniProt Q9GZZ6+Q9UGM1, L31H); assay type: cell-based
Chain of hα9α10[L7H] nAChR (Q9UGM1 26-479 limits assumed, stated change not applied): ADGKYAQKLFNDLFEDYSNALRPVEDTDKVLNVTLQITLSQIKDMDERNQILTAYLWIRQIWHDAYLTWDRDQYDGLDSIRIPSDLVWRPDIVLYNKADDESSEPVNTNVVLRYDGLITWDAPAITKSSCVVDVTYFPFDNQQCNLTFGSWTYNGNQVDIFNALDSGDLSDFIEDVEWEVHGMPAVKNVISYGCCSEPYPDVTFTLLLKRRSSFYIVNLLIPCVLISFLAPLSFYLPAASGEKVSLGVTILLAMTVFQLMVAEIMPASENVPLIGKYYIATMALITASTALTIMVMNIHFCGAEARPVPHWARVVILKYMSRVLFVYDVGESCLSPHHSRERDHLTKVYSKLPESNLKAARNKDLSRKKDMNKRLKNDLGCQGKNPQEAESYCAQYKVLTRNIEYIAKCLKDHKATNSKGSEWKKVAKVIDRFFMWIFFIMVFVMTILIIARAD
Chain of hα9α10[L7H] nAChR (Q9GZZ6 25-450 L31H limits assumed, stated change not applied): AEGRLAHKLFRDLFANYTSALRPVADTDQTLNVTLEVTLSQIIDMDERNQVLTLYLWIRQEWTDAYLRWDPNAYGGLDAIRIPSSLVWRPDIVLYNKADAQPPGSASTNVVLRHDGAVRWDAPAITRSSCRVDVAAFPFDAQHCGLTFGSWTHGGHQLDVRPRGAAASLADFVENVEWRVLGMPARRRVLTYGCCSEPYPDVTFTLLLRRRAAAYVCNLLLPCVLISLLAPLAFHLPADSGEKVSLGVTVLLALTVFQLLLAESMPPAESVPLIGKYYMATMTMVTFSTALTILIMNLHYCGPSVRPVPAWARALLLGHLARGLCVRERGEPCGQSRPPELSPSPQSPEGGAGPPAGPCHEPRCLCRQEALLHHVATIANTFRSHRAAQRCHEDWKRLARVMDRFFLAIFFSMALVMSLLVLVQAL

Chain of hα9α10 nAChR (Q9UGM1 26-479 limits assumed): as the sequence (Q9UGM1 26-479 limits assumed, stated change not applied) above
Chain of hα9α10 nAChR (Q9GZZ6 25-450 limits assumed): as the sequence (Q9GZZ6 25-450 L31H limits assumed, stated change not applied) above, with H7L counted along it
Chain of hα9rα10 nAChR (Q9UGM1 26-479 limits assumed): as the sequence (Q9UGM1 26-479 limits assumed, stated change not applied) above
Chain of hα9rα10 nAChR (Q9JLB5 25-447 limits assumed): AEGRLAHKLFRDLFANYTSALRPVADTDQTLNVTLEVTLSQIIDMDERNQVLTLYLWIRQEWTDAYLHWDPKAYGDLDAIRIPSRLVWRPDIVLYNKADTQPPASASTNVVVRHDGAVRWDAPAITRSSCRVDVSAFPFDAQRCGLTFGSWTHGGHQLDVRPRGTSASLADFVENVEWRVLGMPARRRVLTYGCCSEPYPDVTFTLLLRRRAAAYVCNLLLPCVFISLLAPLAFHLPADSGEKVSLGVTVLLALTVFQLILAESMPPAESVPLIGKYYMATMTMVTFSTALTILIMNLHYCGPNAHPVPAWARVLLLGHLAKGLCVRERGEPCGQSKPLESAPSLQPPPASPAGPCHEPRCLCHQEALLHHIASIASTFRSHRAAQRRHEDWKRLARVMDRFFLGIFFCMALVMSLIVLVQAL
Chain of rα9α10 nAChR (P43144 26-479 limits assumed): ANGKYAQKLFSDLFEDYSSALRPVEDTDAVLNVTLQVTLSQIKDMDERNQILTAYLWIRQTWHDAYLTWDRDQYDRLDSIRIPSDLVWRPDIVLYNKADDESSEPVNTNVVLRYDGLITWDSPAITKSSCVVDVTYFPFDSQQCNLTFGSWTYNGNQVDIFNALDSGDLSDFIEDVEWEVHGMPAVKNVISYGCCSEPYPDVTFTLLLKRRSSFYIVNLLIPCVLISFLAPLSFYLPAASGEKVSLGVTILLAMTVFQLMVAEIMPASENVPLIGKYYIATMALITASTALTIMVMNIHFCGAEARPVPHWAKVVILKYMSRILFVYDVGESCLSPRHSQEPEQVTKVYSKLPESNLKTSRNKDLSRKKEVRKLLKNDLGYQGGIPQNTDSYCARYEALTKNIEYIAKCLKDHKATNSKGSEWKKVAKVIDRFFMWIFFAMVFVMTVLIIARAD
Chain of rα9α10 nAChR (Q9JLB5 25-447 limits assumed): as the sequence (Q9JLB5 25-447 limits assumed) above

CSCC[C@H](NC(=O)[C@@H](NC(=O)[C@@H]1CSSC[C@@H]2NC(=O)[C@H](CC(=O)O)NC(=O)[C@H](C)NC(=O)[C@H](CCCNC(=N)N)NC(=O)[C@H](C)NC(=O)[C@@H]3CSSC[C@H](NC(=O)CNC(=O)[C@H](Cc4c[nH]cn4)NC(=O)CNC(=O)[C@H](CCCNC(=N)N)NC(=O)[C@H](Cc4c[nH]c5ccccc45)NC(=O)[C@H]([C@@H](C)O)NC(=O)[C@H](Cc4c[nH]cn4)NC(=O)[C@H](Cc4ccc(O)cc4)NC(=O)[C@H](C(C)C)NC(=O)[C@H](CSSC[C@H](NC(=O)[C@H](CC(C)C)NC(=O)[C@H](CCCNC(=N)N)NC(=O)[C@@H](N)[C@@H](C)O)C(=O)N[C@@H](CO)C(=O)N[C@@H]([C@@H](C)O)C(=O)N[C@@H](CCSC)C(=O)N[C@@H](CO)C(=O)N3)NC(=O)[C@H]([C@@H](C)O)NC2=O)C(=O)N[C@@H](CO)C(=O)N1)C(C)C)C(=O)O [GeXXA-CTD] (H-TRLCSTMSCARADCTCVYHTWRGHGCSCVM-OH; disulfide 4-16, 9-26, 14-28)
IC50 (hα9α10 nAChR): 2020 nM
IC50 (rα9α10 nAChR): 198 nM
IC50 (hα9rα10 nAChR): 224 nM
IC50 (hα9α10[L7H] nAChR): 183 nM
